In US20060141077A1, “Pest controlling composition and the use thereof” (ORGANOX AB, priority 2002, published 2006):

How the values were obtained:
[1] = tested on: Rhopalosiphum padi; experiment: 4-way olfactometer, direct response to chemical odour; type: in vivo; conditions: R. padi; visits to treatment arm vs control arms
Method: (§1) Responses of R. padi migrants to chemical odours were tested in a 4-way olfactometer (Pettersson, 1970), consisting of an enclosed Perspex arena (12 cm diameter) with a central chamber and four side arms. Air was drawn from the centre of the olfactometer using a water pump, establishing distinct airflow in the side arms. An odour field was established by introducing a chemical (released from a […] capillary tube, or a whole menthol crystal, weight: 0.14 g) into one of the side arms. A single adult apterous aphid was introduced into the olfactometer, and its position was recorded every 3 minutes for 30 minutes. The number of visits to the treatment arm was compared with the mean number of visits to the control arms using a paired t-test. Experiments were repeated 16-20 times (no. individual aphids tested), with the olfactometer turned through 90° between replicates to avoid positional bias. Olfactory responses to plants exposed to chemicals were done in a similar way, except that the odour sources consisted of whole plants enclosed in two-chamber cages attached directly to the olfactometer. In each olfactometer, one treated plant was compared with one untreated plant.

[2] = tested on: aphids; experiment: Test of aphid settling on exposed barley plants; type: in vivo; conditions: barley exposed for 3, 4 and 6 days; FIG. 3
Text: Exposure of barley plants to volatile chemicals was done in perspex ‘two-chamber cages’ (Pettersson et al. 1999) attached to a vacuum tank. Air was taken into the first chamber through a hole in the cage wall, passed into the second chamber and was then drawn out from the top of this cage to a vacuum tank before being vented outside the room. Plants were placed in the second chamber, and chemicals were released from microcapillary tubing which hung in the first chamber. […] Control plants grew in identical cages with empty microcapillary tubes. A 50 ml polystyrene tube was placed over the youngest fully developed leaf. The upper end of the tube was covered with a net and the lower end with a foam plastic plug with a slit for the leaf. To minimise mechanical damage to the test plant, a stick was used to support the tube. Ten mixed-instar apterous aphids were placed in the tube and after 2 hours the number of aphids settled (not walking) on the leaf was recorded. Occasionally aphids were able to escape from the tubes, but the results were expressed as a proportion of the number of aphids originally introduced, in case the propensity of an aphid to escape from the tube was influenced by the experimental treatment of the plant. The number of replicates (tubes) varied between experiments, but there were always equal numbers of control and treatment plants. […]

[3] = tested on: Rhopalosiphum padi; experiment: Olfactometer response to odour of barley plants exposed to chemicals; type: in vivo; conditions: treated plant vs untreated plant
Text: Exposure of barley plants to volatile chemicals was done in perspex ‘two-chamber cages’ (Pettersson et al. 1999) attached to a vacuum tank. Air was taken into the first chamber through a hole in the cage wall, passed into the second chamber and was then drawn out from the top of this cage to a vacuum tank before being vented outside the room. Plants were placed in the second chamber, and chemicals were released from microcapillary tubing which hung in the first chamber. Plants were exposed for 5 days, after which time they were removed and used in tests of aphid behaviour. Control plants grew in identical cages with empty microcapillary tubes. Responses of R. padi migrants to chemical odours were tested in a 4-way olfactometer (Pettersson, 1970), consisting of an enclosed Perspex arena (12 cm diameter) with a central chamber and four side arms. Air was drawn from the centre of the olfactometer using a water pump, establishing distinct airflow in the side arms. An odour field was established by introducing a chemical (released from a […] capillary tube, or a whole menthol crystal, weight: 0.14 g) into one of the side arms. A single adult apterous aphid was introduced into the olfactometer, and its position was recorded every 3 minutes for 30 minutes. The number of visits to the treatment arm was compared with the mean number of visits to the control arms using a paired t-test. […]

[4] = tested on: several aphid species; experiment: Repellency to aphids (conclusions); type: in vivo; conditions: conclusion statement
Method: as §1

[5] = tested on: Cavariella aegopodi; experiment: 4-way olfactometer, direct response to chemical odour; type: in vivo; conditions: FIG. 1
[6] = tested on: Aphis fabae; experiment: as above; type: in vivo; conditions: FIG. 1
[7] = orally in rabbits; cited from earlier work
[8] = cited from earlier work
[9] = tested on: aphids; conditions: applied by spraying in cereal plots, pilot experiment; cited from earlier work
[10] = human adults; cited from earlier work

Row | Compound | response to chemical odour in the olfactometer [1] | aphid settling on plants exposed to the substance [2] | response to odour of plants exposed to the chemical [3] | repellency for several aphid species [4] | response to chemical odour in the olfactometer [5] | response to chemical odour in the olfactometer [6] | LD50 [7] [mg/kg] | solubility in water [8] | aphid settling in the field [9] | average lethal dose [10] [mL]
1 | CC12CCC(CC1)C(C)(C)O2 [1,8-cineole, 1,3,3-trimethyl-2-oxabicyclo[2.2.2.]octane] | did not respond | settled significantly less | less attractive |  |  |  |  |  |  | 
2 | CC1CCC(C(C)C)C(O)C1 (stereo not shown) [menthol, 5-methyl-2-(1-methylethyl)-cyclohexanol] | strongly repelled |  | repelled | strong repellents | strongly repelled | strongly repelled |  |  |  | 
3 | COC(=O)c1ccccc1O [methyl salicylate, 2-hydroxybenzoic acid methyl ester] |  |  |  | strong repellents |  |  | 2800 | slightly soluble | significantly reduced aphid settling | 30
